ChEMBL document CHEMBL3885861, “Open TG-GATES”

Species on record: Rattus norvegicus
Experiment: Open TG-GATES - Regimen: Daily Repeat
Type: toxicity, organism-based, Sprague-Dawley
Set-up: regimen Daily Repeat, gender Male, age 6 weeks
Settings: in vivo, po, route gavage; for Bas / Eos / Fbg / Hb / Ht / Lym / MCHC / Mono / Neu / Plat / RBC / Ret / WBC / PT / MCV: tissue Blood; for KIDNEY_L / KIDNEY_R / KIDNEY_TOTAL: tissue Kidney; for LIVER: tissue Liver; for ALP / ALT / AST / CRE / DBIL / IP / K / LDH / Na / PL / RALB / TBIL / TC / TG / TP / gamma-GTP / BUN / Ca: tissue Plasma
[1] = 0 mg/kg, 72 h, dose level Control, time 3 day
[2] = 0 mg/kg, […], dose level Control, time 7 day
[3] = 0 mg/kg, […], dose level Control, time 14 day
[4] = 0 mg/kg, […], dose level Control, time 28 day
[5] = 40 mg/kg, 72 h, dose level Low, time 3 day
[6] = 40 mg/kg, […], dose level Low, time 7 day
[7] = 40 mg/kg, […], dose level Low, time 14 day
[8] = 40 mg/kg, […], dose level Low, time 28 day
[9] = 120 mg/kg, 72 h, dose level Middle, time 3 day

## CCC(C)(C)C(=O)O[C@H]1C[C@@H](C)C=C2C=C[C@H](C)[C@H](CC[C@@H]3C[C@@H](O)CC(=O)O3)[C@H]21 [SIMVASTATIN]
[1]
  TERMINAL_BW: 222.3 g
  Bas: 0%
  Eos: 1%
  Fbg: 227 mg/dL
  Hb: 13.3 g/dL
  Ht: 40%
  Lym: 78.8%
  MCHC: 33.1%
  Mono: 8.8%
  Neu: 11.8%
  Plat: 121.1 x10_4/uL
  RBC: 621.6 x10_4/ul
  Ret: 6.5%
  WBC: 98.2 x10_2/uL
  KIDNEY_L: 1 g
  KIDNEY_R: 1 g
  KIDNEY_TOTAL: 2 g
  LIVER: 11 g
  ALP: 820.2 IU/L
  ALT: 36.6 IU/L
  AST: 58.8 IU/L
  CRE: 0.6 mg/dL
  DBIL: 0.004 mg/dL
  IP: 7.8 mg/dL
  K: 4.6 meq/L
  LDH: 81 IU/L
  Na: 140.2 meq/L
  PL: 143.4 mg/dL
  RALB: 3.8 g/dL
  TBIL: 0.3 mg/dL
  TC: 82.2 mg/dL
  TG: 75.6 mg/dL
  TP: 5.6 g/dL
  gamma-GTP: 1.8 IU/L
[2]
  TERMINAL_BW: 253.4 g
  Bas: 0%
  Eos: 0.8%
  Fbg: 217.4 mg/dL
  Hb: 12.8 g/dL
  Ht: 38.8%
  Lym: 78.6%
  MCHC: 33%
  Mono: 8.8%
  Neu: 12%
  PT: 10.9 s
  Plat: 115.6 x10_4/uL
  RBC: 606.2 x10_4/ul
  Ret: 3.8%
  WBC: 108.7 x10_2/uL
  KIDNEY_L: 1.1 g
  KIDNEY_R: 1.1 g
  KIDNEY_TOTAL: 2.2 g
  LIVER: 12.2 g
  ALP: 953 IU/L
  ALT: 34.4 IU/L
  AST: 63.4 IU/L
  CRE: 0.7 mg/dL
  DBIL: 0.012 mg/dL
  IP: 7.1 mg/dL
  K: 4.7 meq/L
  LDH: 81.6 IU/L
  Na: 142.4 meq/L
  PL: 152.4 mg/dL
  RALB: 3.8 g/dL
  TBIL: 0.3 mg/dL
  TC: 78.6 mg/dL
  TP: 5.7 g/dL
  gamma-GTP: 1.2 IU/L
[3]
  TERMINAL_BW: 301 g
  Bas: 0%
  Eos: 1%
  Fbg: 222.4 mg/dL
  Hb: 13.9 g/dL
  Ht: 41.7%
  Lym: 78.4%
  MCHC: 33.2%
  Mono: 7%
  Neu: 13.8%
  Plat: 123.4 x10_4/uL
  RBC: 674.8 x10_4/ul
  Ret: 6.2%
  WBC: 122.2 x10_2/uL
  KIDNEY_L: 1.2 g
  KIDNEY_R: 1.3 g
  KIDNEY_TOTAL: 2.5 g
  LIVER: 14 g
  ALP: 777.2 IU/L
  ALT: 34.6 IU/L
  AST: 64.2 IU/L
  BUN: 20.6 mg/dL
  CRE: 0.6 mg/dL
  DBIL: 0.016 mg/dL
  IP: 7 mg/dL
  K: 4.5 meq/L
  LDH: 74.6 IU/L
  Na: 140.6 meq/L
  PL: 154.4 mg/dL
  RALB: 3.8 g/dL
  TBIL: 0.3 mg/dL
  TC: 73.6 mg/dL
  TG: 115.8 mg/dL
  TP: 5.9 g/dL
  gamma-GTP: 1.4 IU/L
[4]
  TERMINAL_BW: 380.8 g
  Bas: 0%
  Eos: 1%
  Fbg: 227.8 mg/dL
  Hb: 14.5 g/dL
  Ht: 43.6%
  Lym: 85.6%
  MCHC: 33.3%
  MCV: 57.8 fL
  Mono: 4.8%
  Neu: 8.6%
  PT: 11.7 s
  Plat: 120.4 x10_4/uL
  RBC: 753.6 x10_4/ul
  Ret: 3%
  WBC: 132.7 x10_2/uL
  KIDNEY_L: 1.4 g
  KIDNEY_R: 1.4 g
  KIDNEY_TOTAL: 2.8 g
  LIVER: 15.9 g
  ALP: 672 IU/L
  ALT: 31.8 IU/L
  AST: 57.6 IU/L
  BUN: 20 mg/dL
  CRE: 0.7 mg/dL
  DBIL: 0.016 mg/dL
  IP: 5.9 mg/dL
  K: 4.3 meq/L
  LDH: 76.6 IU/L
  Na: 142.6 meq/L
  PL: 147.8 mg/dL
  RALB: 3.9 g/dL
  TBIL: 0.3 mg/dL
  TC: 66 mg/dL
  TG: 151.4 mg/dL
  TP: 6.1 g/dL
  gamma-GTP: 1.6 IU/L
[5]
  TERMINAL_BW: 221.3 g
  Bas: 0%
  Eos: 1%
  Fbg: 222.8 mg/dL
  Hb: 13.6 g/dL
  Ht: 41.1%
  Lym: 77%
  MCHC: 33.2%
  Mono: 8.6%
  Neu: 13.6%
  Plat: 125.7 x10_4/uL
  RBC: 639.6 x10_4/ul
  Ret: 5.1%
  WBC: 97.1 x10_2/uL
  KIDNEY_L: 0.9 g
  KIDNEY_R: 1 g
  KIDNEY_TOTAL: 1.9 g
  ALP: 959.2 IU/L
  ALT: 40.6 IU/L
  AST: 67 IU/L
  BUN: 18 mg/dL
  CRE: 0.5 mg/dL
  DBIL: 0.004 mg/dL
  IP: 7.1 mg/dL
  K: 4.4 meq/L
  LDH: 102.4 IU/L
  Na: 140 meq/L
  PL: 148.4 mg/dL
  RALB: 3.8 g/dL
  TBIL: 0.3 mg/dL
  TC: 88.2 mg/dL
  TG: 69.6 mg/dL
  TP: 5.6 g/dL
  gamma-GTP: 1.8 IU/L
[6]
  TERMINAL_BW: 254.5 g
  Bas: 0%
  Eos: 0.6%
  Fbg: 232.4 mg/dL
  Hb: 13.3 g/dL
  Ht: 39.9%
  Lym: 83%
  MCHC: 33.2%
  Mono: 6%
  PT: 11 s
  Plat: 120.4 x10_4/uL
  RBC: 619.6 x10_4/ul
  Ret: 4.2%
  WBC: 123 x10_2/uL
  KIDNEY_L: 1.1 g
  KIDNEY_R: 1.1 g
  KIDNEY_TOTAL: 2.2 g
  LIVER: 12.5 g
  ALP: 877.6 IU/L
  ALT: 38.4 IU/L
  AST: 60.8 IU/L
  BUN: 20.6 mg/dL
  CRE: 0.6 mg/dL
  Ca: 11 mg/dL
  DBIL: 0 mg/dL
  IP: 6.9 mg/dL
  K: 4.9 meq/L
  LDH: 112.2 IU/L
  Na: 141.4 meq/L
  PL: 155 mg/dL
  RALB: 3.8 g/dL
  TBIL: 0.3 mg/dL
  TG: 99.2 mg/dL
  TP: 5.9 g/dL
  gamma-GTP: 1.8 IU/L
[7]
  TERMINAL_BW: 301.6 g
  Bas: 0%
  Eos: 0.6%
  Fbg: 219.4 mg/dL
  Hb: 13.9 g/dL
  Ht: 41.7%
  Lym: 81.6%
  MCHC: 33.3%
  Mono: 5.6%
  Neu: 12.4%
  Plat: 119.7 x10_4/uL
  RBC: 675.8 x10_4/ul
  Ret: 5.3%
  WBC: 121.7 x10_2/uL
  KIDNEY_L: 1.2 g
  KIDNEY_R: 1.2 g
  KIDNEY_TOTAL: 2.4 g
  LIVER: 13.6 g
  ALP: 819.8 IU/L
  ALT: 37 IU/L
  AST: 61.4 IU/L
  BUN: 20 mg/dL
  CRE: 0.6 mg/dL
  Ca: 10.8 mg/dL
  DBIL: 0.006 mg/dL
  IP: 7.1 mg/dL
  K: 4.7 meq/L
  LDH: 82 IU/L
  Na: 140.8 meq/L
  PL: 145.6 mg/dL
  RALB: 3.9 g/dL
  TBIL: 0.3 mg/dL
  TC: 76.6 mg/dL
  TG: 118.4 mg/dL
  TP: 5.9 g/dL
  gamma-GTP: 1.8 IU/L
[8]
  TERMINAL_BW: 380.4 g
  Bas: 0%
  Eos: 1.2%
  Fbg: 244.4 mg/dL
  Hb: 14.8 g/dL
  Ht: 44.7%
  Lym: 81%
  MCHC: 33%
  MCV: 58.3 fL
  Mono: 6.4%
  Neu: 11.6%
  Plat: 111 x10_4/uL
  RBC: 766.6 x10_4/ul
  Ret: 2.3%
  WBC: 112.3 x10_2/uL
  KIDNEY_L: 1.4 g
  KIDNEY_R: 1.4 g
  KIDNEY_TOTAL: 2.8 g
  LIVER: 16.5 g
  ALP: 751.6 IU/L
  ALT: 34.2 IU/L
  AST: 60.4 IU/L
  BUN: 20.6 mg/dL
  CRE: 0.7 mg/dL
  DBIL: 0.024 mg/dL
  IP: 6.8 mg/dL
  K: 4.3 meq/L
  LDH: 113.6 IU/L
  Na: 143.2 meq/L
  PL: 163 mg/dL
  RALB: 4 g/dL
  TBIL: 0.3 mg/dL
  TC: 78.2 mg/dL
  TG: 165.2 mg/dL
  TP: 6.2 g/dL
  gamma-GTP: 1.4 IU/L
[9]
  TERMINAL_BW: 215.2 g
  Bas: 0%
  Eos: 1%
  Fbg: 217.2 mg/dL
  Hb: 13.6 g/dL
